What was measured:
IL-2 pSTAT5 (JAK1/JAK3) = IL-2 pSTAT5 (JAK1/JAK3) cellular assay, AlphaLISA in PBMCs; format: cell-based; conditions: PBMC, IL-2 5 ng/mL
Description: The AlphaLISA assay (based on Alpha Technology from PerkinElmer) was performed by first plating freshly thawed PBMCs (Biological Specialty Corporation) in 384-well plates at 30,000 cells per 4 μL per well in HBSS (Hanks' Balanced Salt Solution) containing 0.1% IgG (immunoglobulin G)-free, protease-free BSA (bovine serum albumin) (Jackson ImmunoResearch Cat. No. 001-000-161). The cells were then treated with 2 μL/well of compounds diluted in DMSO at half-log titrated concentrations, with a highest test concentration of 10 μM and 0.5% final DMSO concentration, for thirty minutes at 37° C. […] The cellular reactions were terminated by the addition of 2 μL/well of lysis buffer (PerkinElmer Cat. No. ALSU-PST5-A10K) followed by an incubation of five minutes at room temperature. 5 μL/well of acceptor mix (PerkinElmer Cat. No. ALSU-PST5-A10K) was added to the cells and incubated in the dark for one hour at room temperature. Then, 5 μL/well of donor mix (PerkinElmer Cat. No. ALSU-PST5-A10K) was added to the cells and incubated in the dark overnight at room temperature. Finally, the plates were read on a PerkinElmer EnVision for detection of the time-resolved fluorescence signal. The percentage of IL-2-dependent pSTAT5 inhibition was determined at the compound test concentrations; and for each compound, a dose curve was generated and the IC50 was calculated. Compound IC50 was calculated by nonlinear regression, sigmoidal dose response analysis of the half-log dilution titration curve of the compound concentration vs. Alpha signal. The acronym “Alpha” stands for amplified luminescent proximity homogeneous assay; the Alpha signal is a luminescent/fluorescent signal.

IFNα pSTAT4 (JAK1/TYK2) = IFNα pSTAT4 (JAK1/TYK2) cellular assay, AlphaLISA in PBMCs; format: cell-based; conditions: PBMC, IFNα 4 ng/mL
Description: The AlphaLISA assay (based on Alpha Technology from PerkinElmer) was performed by first plating freshly thawed PBMCs (Biological Specialty Corporation) in 384-well plates at 100,000 cells per 6 μL per well in DMEM (Dulbecco's Modified Eagle Medium) containing 10% FBS (fetal bovine serum) and 1,000 I.U./mL penicillin and 1,000 μg/mL streptomycin. The cells were then treated with 2 μL/well of compounds diluted in DMSO at half-log titrated concentrations, with a highest test concentration of 10 μM and 0.5% final DMSO concentration, for thirty minutes at 37° C. Next, the cells were stimulated with 2 μL/well of IFNα (PBL Assay Science Cat. No. 11101-2) at 4 ng/mL for thirty minutes at 37° C. The cellular reactions were terminated by the addition of 2 μL/well of lysis buffer (PerkinElmer Cat. No. ALSU-PST4-A10K) followed by an incubation of five minutes at room temperature. 4 μL/well of acceptor mix (PerkinElmer Cat. No. ALSU-PST4-A10K) was added to the cells and incubated in the dark for one hour at room temperature. Then, 4 μL/well of donor mix (PerkinElmer Cat. No. ALSU-PST4-A10K) was added to the cells and incubated in the dark overnight at room temperature. Finally, the plates were read on a PerkinElmer EnVision for detection of the time-resolved fluorescence signal. The percentage of IFNα-dependent pSTAT4 inhibition was determined at the compound test concentrations; and for each compound, a dose curve was generated and the IC50 was calculated. Compound IC50 was calculated by nonlinear regression, sigmoidal dose response analysis of the half-log dilution titration curve of the compound concentration vs. Alpha signal. The term “Alpha” is defined in the immediately preceding cellular assay description.

[1] = test system: GM-CSF pSTAT5 (JAK2/JAK2); test: GM-CSF pSTAT5 (JAK2/JAK2) cellular assay, AlphaLISA in PBMCs; format: cell-based; conditions: PBMC, GM-CSF 11 pg/mL
Description: The AlphaLISA assay (based on Alpha Technology from PerkinElmer) was performed by first plating freshly thawed PBMCs (Biological Specialty Corporation) in 384-well plates at 30,000 cells per 4 μL per well in HBSS containing 0.1% IgG-free, protease-free BSA (Jackson ImmunoResearch Cat. No. 001-000-161). The cells were then treated with 2 μL/well of compounds diluted in DMSO at half-log titrated concentrations, with a highest test concentration of 10 μM and 0.5% final DMSO concentration, for thirty minutes at 37° C. Next, the cells were stimulated with 2 μL/well of GM-CSF (R&D Systems Cat. No. 215-GM-050) at 11 pg/mL for fifteen minutes at 37° C. The cellular reactions were terminated by the addition of 2 μL/well of lysis buffer (PerkinElmer Cat. No. ALSU-PST5-A10K) followed by an incubation of five minutes at room temperature. 5 μL/well of acceptor mix (PerkinElmer Cat. No. ALSU-PST5-A10K) was added to the cells and incubated in the dark for one hour at room temperature. Then, 5 μL/well of donor mix (PerkinElmer Cat. No. ALSU-PST5-A10K) was added to the cells and incubated in the dark overnight at room temperature. Finally, the plates were read on a PerkinElmer EnVision for detection of the time-resolved fluorescence signal. The percentage of GM-CSF-dependent pSTAT5 inhibition was determined at the compound test concentrations; and for each compound, a dose curve was generated and the IC50 was calculated. Compound IC50 was calculated by nonlinear regression, sigmoidal dose response analysis of the half-log dilution titration curve of the compound concentration vs. Alpha signal. The term “Alpha” is defined in the IL-2 pSTAT5 (JAK1/JAK3) cellular assay description.

P-gp (MDR1) = test: MDCK-MDR1 permeability assay; format: in vitro ADME; conditions: dog, MDCK-MDR1, pH 7.4, with elacridar 2 μM, @ 5 μM, apical to basolateral, with P-gp inhibitor elacridar (2 μM); read-out: MDCK-MDR1 P^eapp(A-B)
Description: Permeability measurements were conducted according to the Cyprotex protocol using the MDCK-MDR1 cell line obtained from the NIH (Rockville, Md., USA). […] The cells in this assay form a cohesive sheet of a single cell layer filing the surface area of the culture dish, also known as a confluent monolayer, and on day four the test compound was added to the apical side of the membrane and the transport of the compound across the monolayer was monitored over a time period of 60 min.
Test compounds were dissolved in DMSO at a concentration of 10 mM. The dosing solutions were prepared by diluting test compound with assay buffer (Hanks Balanced Salt Solution), pH 7.4, at a final concentration of 5 μM. For assessment of apical to basolateral (“A-B”) permeability, buffer was removed from the apical compartment and replaced with test compound dosing solution with or without the permeability glycoprotein (“PgP”, “P-gP”, “Pgp” or “P-gp”) inhibitor elacridar (2 μM). For assessment of basolateral to apical (“B-A”) permeability, buffer was removed from the companion plate and replaced with test compound dosing solution. Incubations were carried out in duplicate at 37° C. in an atmosphere of 5% CO2 with a relative humidity of 95%. […] After incubation for 60 minutes, apical and basolateral samples were diluted and test compounds quantified by LC/MS/MS using an 8-point calibration in the range 0.0039 to 3 μM with appropriate dilution of the samples (receiver dilution factor=1; donor and C0 dilution factor=10). The permeability coefficient (Papp) for each compound was calculated from the following equation: Papp=(dQ/dt)/(C0×S), where dQ/dt is the rate of permeation of the drug across the cells, C0 is the donor compartment concentration at time zero, and S is the area of the cell monolayer.
The percent recovery was measured for all incubation conditions.
Papp(A-B) gives an indication of permeation extent across the cells in this assay, which is envisaged to model the transcellular transport across Pgp-expressing cells, such as Pgp-expressing gastrointestinal tract cells.
The integrity of each monolayer was monitored by examining the permeation of lucifer yellow by fluorimetric analysis.

[2] = pH 6.5

SMILES	IC50 (IL-2 pSTAT5 (JAK1/JAK3)) [µM]	IC50 (IFNα pSTAT4 (JAK1/TYK2)) [µM]	IC50 [1] [µM]	Papp A→B at 60 min, 5 μM (P-gp (MDR1)) [×10⁻⁶ cm/s]	SIF solubility [2] [µM]
CC(C)(O)CNC(=O)Cc1nc2cnc3[nH]ccc3c2n1[C@H]1CC[C@H](CC#N)CC1 [Ex. 1, 2-(1-((1r,4r)-4-(Cyanomethyl)cyclohexyl)-1,6-dihydroimidazo[4,5-d]pyrrolo[2,3-b]pyridin-2-yl)-N-(2-hydroxy-2-methylpropyl)acetamide]	0.0216	0.0595	0.0839	1.1	–
CC(C)(C#N)CNC(=O)Cc1nc2cnc3[nH]ccc3c2n1[C@H]1CC[C@H](CC#N)CC1 [Ex. 7, N-(2-Cyano-2-methylpropyl)-2-(1-((1r,4r)-4-(cyanomethyl)cyclohexyl)-1,6-dihydroimidazo[4,5-d]pyrrolo[2,3-b]pyridin-2-yl)acetamide]	0.0097	0.0385	0.0673	1.2	–
N#CC[C@H]1CC[C@H](n2c(CC(=O)NCC3(O)CC3)nc3cnc4[nH]ccc4c32)CC1 [Ex. 12, 2-(1-((1r,4r)-4-(Cyanomethyl)cyclohexyl)-1,6-dihydroimidazo[4,5-d]pyrrolo[2,3-b]pyridin-2-yl)-N-((1-hydroxycyclopropyl)methyl)acetamide]	0.0139	0.0814	0.0754	0.6	>400
N#CCC12CCC(NC(=O)Cc3nc4cnc5[nH]ccc5c4n3[C@H]3CC[C@H](CC#N)CC3)(CC1)C2 [Ex. 10, N-(4-(Cyanomethyl)bicyclo[2.2.1]heptan-1-yl)-2-(1-((1r, 4r)-4-(cyanomethyl)cyclohexyl)-1,6-dihydroimidazo[4,5-d]pyrrolo[2,3-b]pyridin-2-yl)acetamide]	0.0168	0.0404	0.0446	1.1	–
N#CC[C@H]1CC[C@H](n2c(CC(=O)NCC3CC3)nc3cnc4[nH]ccc4c32)CC1 [Ex. 3, 2-(1-((1r,4r)-4-(Cyanomethyl)cyclohexyl)-1,6-dihydroimidazo[4,5-d]pyrrolo[2,3-b]pyridin-2-yl)-N-(cyclopropylmethyl)acetamide]	0.0064	0.0101	0.0219	2.3	>400
N#CC[C@H]1CC[C@H](n2c(CC(=O)NC3CCOCC3)nc3cnc4[nH]ccc4c32)CC1 [Ex. 5, 2-(1-((1r,4r)-4-(Cyanomethyl)cyclohexyl)-1,6-dihydroimidazo[4,5-d]pyrrolo[2,3-b]pyridin-2-yl)-N-(tetrahydro-2H-pyran-4-yl)acetamide]	0.0064	0.0381	0.0289	0.7	–
N#CC[C@H]1CC[C@H](n2c(-c3c[nH]cn3)nc3cnc4[nH]ccc4c32)CC1 [Ex. 2, 2-((1r,4r)-4-(2-(1H-Imidazol-4-yl)imidazo[4,5-d]pyrrolo[2,3-b]pyridin-1(6H)-yl)cyclohexyl)acetonitrile]	0.009	0.0208	0.061	1.6	>400
N#CCCNC(=O)Cc1nc2cnc3[nH]ccc3c2n1[C@H]1CC[C@H](CC#N)CC1 [Ex. 4, N-(2-Cyanoethyl)-2-(1-((1r,4r)-4-(cyanomethyl)cyclohexyl)-1,6-dihydroimidazo[4,5-d]pyrrolo[2,3-b]pyridin-2-yl)acetamide]	0.0355	0.0647	0.119	0.5	>400
N#CC[C@H]1CC[C@H](n2c(CC(=O)NCC3CCOCC3)nc3cnc4[nH]ccc4c32)CC1 [Ex. 6, 2-(1-((1r,4r)-4-(Cyanomethyl)cyclohexyl)-1,6-dihydroimidazo[4,5-d]pyrrolo[2,3-b]pyridin-2-yl)-N-((tetrahydro-2H-pyran-4-yl)methyl)acetamide]	0.0067	0.0394	0.0251	0.9	>400
N#CC[C@H]1CC[C@H](n2c(CC(=O)NCC3(O)CCC3)nc3cnc4[nH]ccc4c32)CC1 [Ex. 8, 2-(1-((1r,4r)-4-(Cyanomethyl)cyclohexyl)-1,6-dihydroimidazo[4,5-d]pyrrolo[2,3-b]pyridin-2-yl)-N-((1-hydroxycyclobutyl)methyl)acetamide]	0.0206	0.0428	0.0338	0.5	>400
